The numbers were not newly measured in patent publication US20130217055A1, “METHOD FOR PREDICTING TYROSINE KINASE INHIBITOR (TKI) RESISTANCE IN PATIENTS SUFFERING FROM CHRONIC MYELOGENOUS LEUKEMIA (CML)” (PamGene B.V., priority 2010, published 2013), which cites them from elsewhere.

Each structure is given as a SMILES string.

This data set relates to CML patients.

With `Cc1ccc(NC(=O)c2ccc(CN3CCN(C)CC3)cc2)cc1Nc1nccc(-c2cccnc2)n1` [Imatinib], the “complete or nearly complete cytogenetic remission” value (patients treated in chronic phase CML) is given as “up to 80% of patients”. Moreover, the “CML patients treated that are or become resistant to the treatment” value (primary or secondary resistance) is listed as “about 20%”.
